Results taken from US20260262643A1, “HERBICIDAL BENZOXAZINES” (FMC CORPORATION, priority 2022, published 2026).

Assays:
horseweed = experiment: Test C postemergence; assay type: in vivo, Erigeron canadensis; details: 10 days, 0 to 100 scale (0 no effect, 100 complete control)
Summary of the method: (§1)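 Test material, in non-phytotoxic solvent with surfactant, was sprayed on the soil directly after seeding (preemergence) or on young plants of 2–10 cm with one to two leaves (postemergence). Greenhouse, 10 days; 0–100 visual control scale.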

barnyardgrass [1] = experiment: Test D flooded paddy test; assay type: in vivo, Echinochloa crus-galli; details: 250 g ai/ha, applied to paddy water, visual rating after 13 to 14 days, scale 0 to 100 (0 no effect, 100 complete control)
Summary of the method: (§2)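 Visual ratings from 0, meaning no effect, to 100, meaning complete control, were assigned against untreated controls 13 to 14 days after compounds were added to the floodwater of pots kept 3 cm deep, with plants at the 2-leaf stage.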

ragweed [2] = experiment: Test C postemergence; assay type: in vivo, Ambrosia artemisiifolia; details: 10 days, 0 to 100 scale (0 no effect, 100 complete control)
Summary of the method: as §1

oat, wild [3] = experiment: Test C postemergence; assay type: in vivo, Avena fatua; details: 10 days, 0 to 100 scale (0 no effect, 100 complete control)
Summary of the method: as §1

kochia [4] = experiment: Test C preemergence; assay type: in vivo, Bassia scoparia
Summary of the method: as §1

rice = experiment: Test D flooded paddy test; assay type: in vivo, Oryza sativa; details: 250 g ai/ha, applied to paddy water, visual rating after 13 to 14 days, scale 0 to 100 (0 no effect, 100 complete control)
Summary of the method: as §2

barnyardgrass [5] = experiment: Test C postemergence; assay type: in vivo, Echinochloa crusgalli; details: 10 days, 0 to 100 scale (0 no effect, 100 complete control)
Summary of the method: as §1

pigweed, palmer [6] = experiment: Test C preemergence; assay type: in vivo, Amaranthus palmeri
Summary of the method: as §1

pigweed, palmer [7] = experiment: Test C postemergence; assay type: in vivo, Amaranthus palmeri; details: 10 days, 0 to 100 scale (0 no effect, 100 complete control)
Summary of the method: as §1

foxtail, giant [8] = experiment: Test C preemergence; assay type: in vivo, Setaria faberi
Source text: (§3) Seeds of plant species selected from barnyardgrass (Echinochloa crusgalli), blackgrass (Alopecurus myosuroides), corn (Zea mays), foxtail, giant (giant foxtail, Setaria faberi), green foxtail (Setaria viridis), goosegrass (Eleusine indica), kochia (Bassia scoparia), oat, wild (wild oat, Avena fatua), pigweed, palmer (palmer amaranth, palmer pigweed, Amaranthus palmeri), Pigweed, Redroot (redroot pigweed, Amaranthus retroflexus), ragweed (common ragweed, Ambrosia artemisiifolia), ryegrass, Italian ([…] ryegrass, Lolium multiflorum), soybean (Glycine max), and wheat (Triticum aestivum) were planted into a blend of loam soil and sand and treated preemergence with a directed soil spray using test chemicals formulated in a non-phytotoxic solvent mixture which included a surfactant. At the same time, plants selected from these crops and weed species and also galium (catchweed bedstraw, Galium aparine) and horseweed (Erigeron canadensis) were planted in pots containing the same blend of loam soil and sand and treated with postemergence applications of test chemicals formulated in the same manner. Plants ranged in height from 2 to 10 cm and were in the one- to two-leaf stage for the postemergence treatment. Treated plants and untreated controls were maintained in a greenhouse for 10 days, after which time all treated plants were compared to untreated controls and visually evaluated for injury. Plant response ratings, summarized in Table C, are based on a 0 to 100 scale where 0 is no effect and 100 is complete control. A dash (-) response means no test result.

ryegrass, Italian [9] = experiment: Test C preemergence; assay type: in vivo, Lolium multiflorum
Summary of the method: as §1

soybean [10] = experiment: Test C postemergence; assay type: in vivo, Glycine max; details: 10 days, 0 to 100 scale (0 no effect, 100 complete control)
Summary of the method: as §1

galium = experiment: Test C postemergence; assay type: in vivo, Galium aparine; details: 10 days, 0 to 100 scale (0 no effect, 100 complete control)
Summary of the method: as §1

soybean [11] = experiment: Test C preemergence; assay type: in vivo, Glycine max
Summary of the method: as §1

ducksalad = experiment: Test D flooded paddy test; assay type: in vivo, Heteranthera limosa; details: 250 g ai/ha, applied to paddy water, visual rating after 13 to 14 days, scale 0 to 100 (0 no effect, 100 complete control)
Summary of the method: as §2

barnyardgrass [12] = experiment: Test C preemergence; assay type: in vivo, Echinochloa crusgalli
Summary of the method: as §1

oat, wild [13] = experiment: Test C preemergence; assay type: in vivo, Avena fatua
Summary of the method: as §1

ryegrass, Italian [14] = experiment: Test C postemergence; assay type: in vivo, Lolium multiflorum; details: 10 days, 0 to 100 scale (0 no effect, 100 complete control)
Summary of the method: as §1

sedge, umbrella = experiment: Test D flooded paddy test; assay type: in vivo, Cyperus difformis; details: 250 g ai/ha, applied to paddy water, visual rating after 13 to 14 days, scale 0 to 100 (0 no effect, 100 complete control)
Summary of the method: as §2

wheat [15] = experiment: Test C preemergence; assay type: in vivo, Triticum aestivum
Summary of the method: as §1

foxtail, giant [16] = experiment: Test C postemergence; assay type: in vivo, Setaria faberi; details: 10 days, 0 to 100 scale (0 no effect, 100 complete control)
Source text: as §3

corn [17] = experiment: Test C preemergence; assay type: in vivo, Zea mays
Summary of the method: as §1

blackgrass [18] = experiment: Test C postemergence; assay type: in vivo, Alopecurus myosuroides; details: 10 days, 0 to 100 scale (0 no effect, 100 complete control)
Summary of the method: as §1

corn [19] = experiment: Test C postemergence; assay type: in vivo, Zea mays; details: 10 days, 0 to 100 scale (0 no effect, 100 complete control)
Summary of the method: as §1

ragweed [20] = experiment: Test C preemergence; assay type: in vivo, Ambrosia artemisiifolia
Summary of the method: as §1

blackgrass [21] = experiment: Test C preemergence; assay type: in vivo, Alopecurus myosuroides
Summary of the method: as §1

kochia [22] = experiment: Test C postemergence; assay type: in vivo, Bassia scoparia; details: 10 days, 0 to 100 scale (0 no effect, 100 complete control)
Summary of the method: as §1

wheat [23] = experiment: Test C postemergence; assay type: in vivo, Triticum aestivum; details: 10 days, 0 to 100 scale (0 no effect, 100 complete control)
Summary of the method: as §1

[24] = 500 g ai/ha, preemergence, 0 to 100 scale (0 no effect, 100 complete control)
[25] = Preemergence, 125 g ai/ha, 0 to 100 scale, 0 no effect, 100 complete control

Structure (SMILES): C[C@H]1CN(C(=O)c2cc(-n3cncn3)cc(C(F)(F)F)c2)c2cccc(Cl)c2O1 [Compound 335]
- Plant response rating, Horseweed (horseweed; 500 g ai/ha, postemergence): 0
- Plant response rating, Horseweed (horseweed; Postemergence, 125 g ai/ha): 0
- Plant response rating, Barnyardgrass (Flood) (barnyardgrass [1]): 0
- Plant response rating, Ragweed (ragweed [2]; 500 g ai/ha, postemergence): 20
- Plant response rating, Ragweed (ragweed [2]; Postemergence, 125 g ai/ha): 0
- Plant response rating, Oat, Wild (oat, wild [3]; 500 g ai/ha, postemergence): 0
- Plant response rating, Oat, Wild (oat, wild [3]; Postemergence, 125 g ai/ha): 0
- Kochia plant response rating (kochia [4]; [24]): 20
- Plant response rating, Kochia (kochia [4]; [25]): 0
- Plant response rating, Rice (Flood) (rice): 0
- Plant response rating, Barnyardgrass (barnyardgrass [5]; 500 g ai/ha, postemergence): 20
- Plant response rating, Barnyardgrass (barnyardgrass [5]; Postemergence, 125 g ai/ha): 10
- Pigweed, Palmer plant response rating (pigweed, palmer [6]; [24]): 60
- Plant response rating, Pigweed, Palmer (pigweed, palmer [6]; [25]): 0
- Plant response rating, Pigweed, Palmer (pigweed, palmer [7]; 500 g ai/ha, postemergence): 60
- Plant response rating, Pigweed, Palmer (pigweed, palmer [7]; Postemergence, 125 g ai/ha): 10
- Foxtail, Giant plant response rating (foxtail, giant [8]; [24]): 90
- Plant response rating, Foxtail, Giant (foxtail, giant [8]; [25]): 30
- Ryegrass, Italian plant response rating (ryegrass, Italian [9]; [24]): 80
- Plant response rating, Ryegrass, Italian (ryegrass, Italian [9]; [25]): 30
- Plant response rating, Soybean (soybean [10]; 500 g ai/ha, postemergence): 100
- Plant response rating, Soybean (soybean [10]; Postemergence, 125 g ai/ha): 90
- Plant response rating, Galium (galium; 500 g ai/ha, postemergence): 50
- Plant response rating, Galium (galium; Postemergence, 125 g ai/ha): 50
- Soybean plant response rating (soybean [11]; [24]): 30
- Plant response rating, Soybean (soybean [11]; [25]): 0
- Plant response rating, Ducksalad (Flood) (ducksalad): 35
- Barnyardgrass plant response rating (barnyardgrass [12]; [24]): 60
- Plant response rating, Barnyardgrass (barnyardgrass [12]; [25]): 20
- Oat, Wild plant response rating (oat, wild [13]; [24]): 10
- Plant response rating, Oat, Wild (oat, wild [13]; [25]): 0
- Plant response rating, Ryegrass, Italian (ryegrass, Italian [14]; 500 g ai/ha, postemergence): 30
- Plant response rating, Ryegrass, Italian (ryegrass, Italian [14]; Postemergence, 125 g ai/ha): 10
- Plant response rating, Sedge, Umbrella (Flood) (sedge, umbrella): 35
- Wheat plant response rating (wheat [15]; [24]): 0
- Plant response rating, Wheat (wheat [15]; [25]): 0
- Plant response rating, Foxtail, Giant (foxtail, giant [16]; 500 g ai/ha, postemergence): 50
- Plant response rating, Foxtail, Giant (foxtail, giant [16]; Postemergence, 125 g ai/ha): 20
- Corn plant response rating (corn [17]; [24]): 10
- Plant response rating, Corn (corn [17]; [25]): 0
- Plant response rating, Blackgrass (blackgrass [18]; 500 g ai/ha, postemergence): 20
- Plant response rating, Blackgrass (blackgrass [18]; Postemergence, 125 g ai/ha): 0
- Plant response rating, Corn (corn [19]; 500 g ai/ha, postemergence): 10
- Plant response rating, Corn (corn [19]; Postemergence, 125 g ai/ha): 10
- Ragweed plant response rating (ragweed [20]; [24]): 0
- Plant response rating, Ragweed (ragweed [20]; [25]): 0
- Blackgrass plant response rating (blackgrass [21]; [24]): 80
- Plant response rating, Blackgrass (blackgrass [21]; [25]): 20
- Plant response rating, Kochia (kochia [22]; 500 g ai/ha, postemergence): 30
- Plant response rating, Kochia (kochia [22]; Postemergence, 125 g ai/ha): 10
- Plant response rating, Wheat (wheat [23]; 500 g ai/ha, postemergence): 20
- Plant response rating, Wheat (wheat [23]; Postemergence, 125 g ai/ha): 10
